Measurements taken from patent publication US20250074946A1, “USE OF SE-DR AFFINITY PEPTIDE IN PREPARING DRUG FOR TREATING RHEUMATIC DISEASE” (HEBEI FITNESS BIOTECHNOLOGY CO., LTD., priority 2021, published 2025).
Where no end group is shown, it is not given here.

Columns and labels:
CIA mice = assay type: in vivo, mouse
Description: Male DBA/1 mice were used to establish CIA model. Methods: Mice were immunized by intradermally injecting an emulsion of bovine C II and CFA (containing 100 μg collagen) at the tail head. After 21 days, the mice were boosted once by intraperitoneally injecting an emulsion of bovine C II and IFA (containing 100 μg collagen). […] Another 10 female DBA/1 mice were not subjected to model establishment and set as the control group. PBS was administrated to both the model group and the control group. Corresponding drugs were administrated to the mice in each group by tail vein injection at the volume of 10 mL/kg, once every other day, for 28 consecutive days, followed by a recovery period of 28 days. The inflammation score of the four paws of the mice in each group was evaluated during the administration (once every other day), and the area under the curve (AUC) of the inflammation score was calculated during the administration. During drug discontinuation, the inflammation scores of the four paws of the […] in each group were continuously evaluated (once every other day), and the rats were sacrificed on day 28 after drug discontinuation. HE staining was performed on the ankle joint for tissue injury evaluation. The specific scoring criteria were as follows: 0=normal synovial tissue; 1=synovial hyperplasia and inflammatory cell infiltration; 2=pannus formation and cartilage erosion; 3=destruction of most of the cartilage with subchondral bone erosion; 4=loss of joint integrity, ankylosis.

CIA rats = assay type: in vivo, rat
Text: Female Lewis rats were used to establish CIA model. Methods: The rats were immunized by intradermal injection with the emulsion prepared by bovine C II and IFA at the tail head. After 7 days, the rats were boosted once with the same method. Thereafter, the morphological changes of the four paws of the rats were examined every day. […] Another 8 female Lewis rats were not subjected to model establishment and set as the control group. PBS was administrated to both the model group and the control group. […] The inflammation scores of the four paws of the rats in each group were evaluated during the administration (once every other day), and the area under the curve (AUC) of the inflammation score was calculated during the administration. During drug discontinuation, the inflammation scores of the four paws of the rats in each group were continuously evaluated (once every other day), and the rats were sacrificed on day 22 after drug discontinuation. HE staining was performed on the ankle joint for tissue injury evaluation. The specific scoring criteria were as follows: 0=normal synovial tissue; 1=synovial hyperplasia and inflammatory cell infiltration; 2=pannus formation and cartilage erosion; 3=destruction of most of the cartilage with subchondral bone erosion; 4=loss of joint integrity, ankylosis.

[1] = HE staining of ankle joint, score 0-4

FKGEQAGAGE [APL2] was tested, and the “inflammation score during drug discontinuation compared with that at the time of drug discontinuation” value (CIA mice; 28 days of observation after stopping at day 28) was “could maintain the therapeutic effect”, the “Pathological score during 28 days of drug discontinuation” value (CIA mice; [1]) was 2.05 ± 0.87 and the “AUC, during drug discontinuation (day 29-56)” value (CIA mice; inflammation score AUC after stopping administration at day 28) was 87.55 ± 40.08. The “Incidence of infection in mice” value (CIA mice; mouse, in vivo) was 0%, the “Observation on the daily state of mice” value (CIA mice; mouse, in vivo) was “No” and the “inflammation score during drug discontinuation compared with that at the time of drug discontinuation” value (CIA rats; 21 days of observation after stopping at day 21) was “could maintain the therapeutic effect”. The “Pathological score during 21 days of drug discontinuation” value (CIA rats; [1]) was 1.93 ± 0.58, the “AUC, during drug discontinuation (day 22-42)” value (CIA rats; inflammation score AUC after stopping administration at day 21) was 42.86 ± 31.21 and the “Incidence of infection in rats” value (CIA rats; rat, in vivo) was 0%. The “Observation on the daily state of rats” value (CIA rats; rat, in vivo) was “No”.
